From patent US11339147B2, “Lactam compound as FXR receptor agonist” (CSPC ZHONGQI PHARMACEUTICAL TECHNOLOGY (SHIJIAZHUANG) CO., …, priority 2017, dated 2022)
Like-named read-outs stand apart in the source and are kept apart here.

Target: T1, glutathione-S-transferase-labeled FXR human protein (Homo sapiens, UniProt Q96RI1)
T1 construct: purchased Invitrogen
T1 sequence (Q96RI1 1-486): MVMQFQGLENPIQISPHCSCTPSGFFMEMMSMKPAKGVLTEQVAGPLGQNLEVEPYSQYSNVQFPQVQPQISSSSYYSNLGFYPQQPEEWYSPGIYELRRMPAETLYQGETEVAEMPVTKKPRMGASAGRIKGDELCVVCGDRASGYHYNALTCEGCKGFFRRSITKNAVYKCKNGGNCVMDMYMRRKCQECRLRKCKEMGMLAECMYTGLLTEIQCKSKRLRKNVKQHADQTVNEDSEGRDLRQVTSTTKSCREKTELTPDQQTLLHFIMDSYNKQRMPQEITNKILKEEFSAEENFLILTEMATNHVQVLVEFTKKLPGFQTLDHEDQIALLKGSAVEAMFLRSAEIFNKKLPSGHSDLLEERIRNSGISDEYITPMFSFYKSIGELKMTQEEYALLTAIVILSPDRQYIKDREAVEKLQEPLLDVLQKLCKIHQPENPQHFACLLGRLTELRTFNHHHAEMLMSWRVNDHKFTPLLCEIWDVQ
Assay: FXR biochemical experiment (alphascreen, coactivator recruitment)
Conditions: for EC50: alphascreen, activation of FXR binding reaction with steroid receptor coactivator, read-out: FXR enzyme activity EC50; for Emax: read-out: FXR enzyme activity Efficacy (activation efficacy percent)
Experimental: FXR Biochemical Experiment
To test the effect of the compound on the activation of the FXR binding reaction by a Homogenous Proximity Luminescent Amplified Assay (alphascreen).
1. Protein: glutathione-S-transferase-labeled FXR human protein (Invitrogen)
2. Coactivator: biotin-labeled steroid receptor coactivator (Anaspec)
3. Detection reagent: Homogenous Proximity Luminescent Amplified Assay (alphascreen) detection kit (PerkinElmer)
1. Dilution of compounds: The test compound was prepared as a 40 μM DMSO solution, which was then diluted 3-fold to 10 concentration points. The reference compound was prepared as a 400 μM DMSO solution, and then was 1.5-fold diluted to 10 concentration points. The diluted DMSO solution was added to the micro-wells of a 384-well plate at a volume of 150 nl per well.
2. Glutathione-S-transferase-labeled FXR human protein and biotin-labeled steroid receptor coactivator were prepared to a mixed solution at a concentration of 0.4 nM and 30 nM, respectively. The mixed solution was added to the micro-wells of the 384-well plate at a volume of 15 μL per well, and incubated for 1 hour at room temperature.
3. […] The experiment process was protected from light. It was incubated for 1 hour at room temperature.
4. […] The experiment process was protected from light. It was incubated for 1 hour at room temperature.
5. EC50 test: Envision was used to excite at 680 nm and the […] signal at 520-620 nm was read.
6. Data analysis: Data analysis was conducted using Prism 5.0 to calculate the EC50 value of the activation effect of the compound.

[1] = highest signal relative to reference compound chenodeoxycholic acid (Examples 1-30)
[2] = highest signal relative to reference compound obeticholic acid (Examples 31-47)

| EC50 [nM] | FXR enzyme activity Efficacy (activation efficacy percent) [1] [%] | Emax [2] [%] | Emax [1] [%] | SMILES |
| --- | --- | --- | --- | --- |
| 830 | 169 | – | – | O=C(O)C1CCC(CN2C(=O)C3(CC3)c3cc(OCc4c(-c5c(Cl)cccc5Cl)noc4C4CC4)ccc32)CC1 (single isomer, unassigned) [Compound 20] |
| 444 | – | 95 | – | O=C(O)c1cccc(N2C(=O)CCc3cc(OCc4c(-c5c(Cl)cccc5Cl)noc4C4CC4)ccc32)c1 [Compound 41] |
| 610 | – | – | 124 | O=C(O)c1cncc(N2C(=O)C3(CC3)c3cc(OCc4c(-c5c(Cl)cccc5Cl)noc4C4CC4)ccc32)c1 [Compound 24] |
| 410 | – | – | 218 | O=C(O)c1cc(F)cc(N2C(=O)C3(CC3)c3cc(OCc4c(-c5c(Cl)cccc5Cl)noc4C4CC4)ccc32)c1 [Compound 27] |
| 950 | 96 | – | – | O=C(O)C1CCC(CN2C(=O)C3(CC3)c3cc(OCc4c(-c5c(Cl)cccc5Cl)noc4C4CC4)ccc32)CC1 (single isomer, unassigned) [Compound 21] |
| 650 | – | – | 186 | O=C(O)c1ccc(N2C(=O)C3(CC3)c3cc(OCc4c(-c5ccccc5OC(F)(F)F)noc4C4CC4)ccc32)cc1 [Compound 28] |
| 310 | – | – | 120 | O=C(O)c1csc(N2C(=O)C3(CC3)c3cc(OCc4c(-c5c(Cl)cccc5Cl)noc4C4CC4)ccc32)c1 [Compound 23] |
| 150 | – | – | 242 | O=C(O)c1ccc(N2C(=O)C3(CC3)c3cc(OCc4c(-c5c(Cl)cccc5Cl)noc4C4CC4)ccc32)s1 [Compound 5] |
| 58 | – | 117 | – | O=C(O)c1ccc(N2C(=O)CCc3cc(OCc4c(-c5c(Cl)cccc5Cl)noc4C4CC4)ccc32)nc1 [Compound 40] |
| 1560 | – | – | 229 | COc1cc(N2C(=O)C3(CC3)c3cc(OCc4c(-c5c(Cl)cccc5Cl)noc4C4CC4)ccc32)ccc1C(=O)O [Compound 9] |
| 180 | – | – | 165 | O=C(O)c1ccc(N2C(=O)C3(CC3)c3cc(OCc4c(-c5c(Cl)cccc5Cl)noc4C4CC4)ccc32)nc1 [Compound 3] |
| 108 | – | 117 | – | O=C(O)c1csc(N2C(=O)CCc3cc(OCc4c(-c5c(Cl)cccc5Cl)noc4C4CC4)ccc32)c1 [Compound 45] |
| 6430 | – | – | 21 | O=C(O)c1ccccc1N1C(=O)C2(CC2)c2cc(OCc3c(-c4c(Cl)cccc4Cl)noc3C3CC3)ccc21 [Compound 26] |
| 20 | – | 153 | – | O=C(O)c1ccc(N2C(=O)CCc3cc(OCc4c(-c5c(Cl)cccc5Cl)noc4C4CC4)ccc32)cc1O [Compound 47] |
| 200 | – | – | 256 | Cn1cc(C(=O)O)c2ccc(N3C(=O)C4(CC4)c4cc(OCc5c(-c6c(Cl)cccc6Cl)noc5C5CC5)ccc43)cc21 [Compound 4] |
| 230 | – | – | 152 | CC1(C)C(=O)N(c2cccc(C(=O)O)c2)c2ccc(OCc3c(-c4c(Cl)cccc4Cl)noc3C3CC3)cc21 [Compound 15] |
| 90 | – | – | 163 | CC1(C)C(=O)N(c2ccc(C(=O)O)cc2)c2ccc(OCc3c(-c4c(Cl)cccc4Cl)noc3C3CC3)cc21 [Compound 13] |
| 58 | – | 117 | – | COc1cc(C(=O)O)ccc1N1C(=O)CCc2cc(OCc3c(-c4c(Cl)cccc4Cl)noc3C3CC3)ccc21 [Compound 44] |
| 127 | – | 140 | – | O=C(O)c1ccc(N2C(=O)CCc3cc(OCc4c(-c5c(Cl)cccc5Cl)noc4C4CC4)ccc32)c(F)c1 [Compound 34] |
| 410 | – | – | 130 | O=C(O)c1ccc(N2C(=O)C3(CC3)c3cc(OCc4c(-c5c(Cl)cccc5Cl)noc4C4CC4)ccc32)cc1Cl [Compound 25] |
| 660 | – | – | 200 | O=C(O)c1ccc(CN2C(=O)C3(CC3)c3cc(OCc4c(-c5c(Cl)cccc5Cl)noc4C4CC4)ccc32)nc1 [Compound 22] |
| 20 | – | 153 | – | Cc1cc(C(=O)O)cnc1N1C(=O)CCc2cc(OCc3c(-c4c(Cl)cccc4Cl)noc3C3CC3)ccc21 [Compound 43] |
| 1880 | – | – | 169 | O=C(O)CCN1C(=O)C2(CC2)c2cc(OCc3c(-c4c(Cl)cccc4Cl)noc3C3CC3)ccc21 [Compound 17] |

| EC50 [nM] | FXR enzyme activity Efficacy (activation efficacy percent) [1] [%] | Emax [2] [%] | Emax [1] [%] | SMILES |
| --- | --- | --- | --- | --- |
| 560 | – | – | 211 | O=C(O)c1ccc(N2C(=O)C3(CC3)c3cc(OCc4c(-c5c(Cl)cncc5Cl)noc4C4CC4)ccc32)cc1 [Compound 29] |
| 189 | – | 137 | – | O=C(O)c1cc(N2C(=O)CCc3cc(OCc4c(-c5c(Cl)cccc5Cl)noc4C4CC4)ccc32)ccc1F [Compound 42] |
| 100 | – | – | 169 | O=C(O)c1ccc(N2C(=O)C3(CC3)c3cc(OCc4c(-c5c(Cl)cccc5Cl)noc4C4CC4)ccc32)cc1 [Compound 6] |
| 3390 | – | – | 151 | O=C(O)CCCN1C(=O)C2(CC2)c2cc(OCc3c(-c4c(Cl)cccc4Cl)noc3C3CC3)ccc21 [Compound 16] |
| 1030 | – | – | 312 | O=C(O)c1ccc(N2C(=O)C3(CC3)c3cc(OCc4c(-c5c(Cl)cccc5Cl)noc4C4CC4)ccc32)cc1F [Compound 10] |
| 820 | – | – | 35 | Cc1sc(N2C(=O)C3(CC3)c3cc(OCc4c(-c5c(Cl)cccc5Cl)noc4C4CC4)ccc32)nc1C(=O)O [Compound 8] |
| 140 | – | 118 | – | O=C(O)c1cnc(N2C(=O)CCc3cc(OCc4c(-c5c(Cl)cccc5Cl)noc4C4CC4)ccc32)s1 [Compound 38] |
| 200 | – | – | 156 | O=C(O)c1cccc(CN2C(=O)C3(CC3)c3cc(OCc4c(-c5c(Cl)cccc5Cl)noc4C4CC4)ccc32)c1 [Compound 1] |
| 200 | – | – | 136 | CC1(C)C(=O)N(Cc2cccc(C(=O)O)c2)c2ccc(OCc3c(-c4c(Cl)cccc4Cl)noc3C3CC3)cc21 [Compound 14] |
| 580 | – | – | 82 | O=C(O)c1cccc(CN2C(=O)C3(CCCC3)c3cc(OCc4c(-c5c(Cl)cccc5Cl)noc4C4CC4)ccc32)c1 [Compound 11] |
| 83 | – | 126 | – | O=C(O)c1ccc(N2C(=O)CCc3cc(OCc4c(-c5c(Cl)cccc5Cl)noc4C4CC4)ccc32)s1 [Compound 46] |
| 69 | – | 135 | – | O=C(O)c1ccc(N2C(=O)CCc3cc(OCc4c(-c5c(Cl)cccc5Cl)noc4C4CC4)ccc32)c(Cl)c1 [Compound 36] |
| 9 | – | 161 | – | O=C(O)c1cnc(N2C(=O)CCc3cc(OCc4c(-c5c(Cl)cccc5Cl)noc4C4CC4)ccc32)c(F)c1 [Compound 35] |
| 290 | – | – | 155 | O=C(O)c1ccc(CN2C(=O)C3(CC3)c3cc(OCc4c(-c5c(Cl)cccc5Cl)noc4C4CC4)ccc32)cc1 [Compound 2] |
| 1760 | – | – | 33 | O=C(O)c1ccc(N2C(=O)C3(CC3)c3ccc(OCc4c(-c5c(Cl)cccc5Cl)noc4C4CC4)cc32)cc1 [Compound 12] |
| 1530 | – | – | 228 | O=C(O)c1ccc(N2C(=O)C3(CC3)c3cc(OCc4c(-c5c(Cl)cccc5Cl)noc4C4CC4)cnc32)cc1 [Compound 30] |
| 2560 | – | – | 95 | O=C(O)C12CC(CN3C(=O)C4(CC4)c4cc(OCc5c(-c6c(Cl)cccc6Cl)noc5C5CC5)ccc43)(C1)C2 [Compound 19] |
| 660 | – | – | 142 | O=C(O)C1CC=C(N2C(=O)C3(CC3)c3cc(OCc4c(-c5c(Cl)cccc5Cl)noc4C4CC4)ccc32)CC1 (stereo not drawn) [Compound 18] |
| 35 | – | 140 | – | N#Cc1cc(C(=O)O)ccc1N1C(=O)CCc2cc(OCc3c(-c4c(Cl)cccc4Cl)noc3C3CC3)ccc21 [Compound 39] |
| 240 | – | – | 144 | O=C(O)c1cccc(N2C(=O)C3(CC3)c3cc(OCc4c(-c5c(Cl)cccc5Cl)noc4C4CC4)ccc32)c1 [Compound 7] |
| 43 | – | 115 | – | Cn1cc(C(=O)O)c2ccc(N3C(=O)CCc4cc(OCc5c(-c6c(Cl)cccc6Cl)noc5C5CC5)ccc43)cc21 [Compound 31] |
| 143 | – | 127 | – | O=C(O)c1ccc(N2C(=O)CCc3cc(OCc4c(-c5c(Cl)cccc5Cl)noc4C4CC4)ccc32)cc1 [Compound 33] |
